Experimental data reported in patent US7157083B2, “Compositions and methods for treating retroviral infections” (priority 1998, dated 2007).
Read-outs that look alike come from different tables or passages of the source.

Key:
HIV-1 = details: Assay #7
Experimental: Reverse transcriptase (RT) activity was measured in cell-free supernatants. Tritiated thymidine triphosphate (NEN) (TTP) was resuspended in distilled H2O at 5 Cl/mL. Poly rA and oligo dT were prepared as a stock solution which was kept at −20° C. The RT reaction buffer was prepared fresh on a daily basis and consists of 125 μL 1.0 M EGTA, 125 μL d H2O, 110 μL 10% SDS, 50 μL 1.0 M Tris (pH 7.4), 50 μL 1.0 M DTT, and 40μ1.0 M MgCl2. These three solutions were mixed together in a ratio of 2 parts TTP, 1 part poly rA:oligo dT, and 1 part reaction buffer. Ten microliters of this reaction mixture was placed in a round bottom microtiter plate and 15 μL of virus containing supernatant was added and mixed. The plate was incubated at 37° C. in a water bath with a solid support to prevent submersion of the plate and incubated for 60 minutes. Following reaction, the reaction volume was spotted onto pieces of DE81 paper, washed 5 times for 5 minutes each in a 5% sodium phosphate buffer, 2 times for 1 minute each in distilled water, 2 times for 1 minute each in 70% ethanol, and then dried. Opti-Fluor O was added to each sample and incorporated radioactivity was quantitated utilizing a Wallace 1450 Microbetaplus liquid scintillation counter.
Control groups were not treated with the enzyme.

ROJO (low passage HIV-1) = assay: Study 2 hyaluronidase chronic overlay testing: RT activity after secondary ROJO infection; assay type: cell-based
Source text: Percent virus control (% VC) in the following tables is the mean RT activity (cpm) as a percentage of a virus control. Percent cell control (% CC) is the mean XTT absorbance as a percentage of a cell control.
Method A. Peripheral blood monocytes were isolated from normal HIV-1 negative donors by plastic adherence following ficall hypaque purification of the buffy coat PBMCs. For isolation of adherent cells, 3×10^6/ml non-PHA stimulated peripheral blood cells were resuspended in Hanks buffered saline (with calcium and magnesium) supplemented with 10% human AB serum, and 200 μl per well placed in a 96 well lat bottomed microtiter plate. The cells were incubated overnight at 37° C., 5% CO2. Non-adherent cells were removed by washing six time with a Ca^++, Mg^++ containing medium. The adherent cells after the final wash were supplemented with RPMI 1640 supplemented with 15% fetal bovine serum (heat inactivated), 2 mM L-glutamine, 100 U/mL penicillin, 100 μg/mL streptomycin and 10 μg/mL gentamycin, and cultured for 7 days. The cultures were washed one final time before addition of compounds to remove any non-adherent cells. The cultures are carefully monitored for confluency prior to assay.
Reverse transcriptase (RT) activity was measured in cell-free supernatants. Tritiated thymidine triphosphate (NEN) (TTP) was resuspended in distilled H2O at […]. Poly rA and oligo dT were prepared as a stock solution which was kept at −20° C. The RT reaction buffer was prepared fresh on a daily basis and consists of 125 μL 1.0 M EGTA, 125 μL d H2O, 110 μL 10% SDS, 50 μL 1.0 M Tris (pH 7.4), 50 μL 1.0 M DTT, and 40μ1.0 M MgCl2. These three solutions were mixed together in a ratio of 2 parts TTP, 1 part poly rA:oligo dT, and 1 part reaction buffer. Ten microliters of this reaction mixture was placed in a round bottom microtiter plate and 15 μL of virus containing supernatant was added and mixed. The plate was incubated at 37° C. in a water bath with a solid support to prevent submersion of the plate and incubated for 60 minutes. Following reaction, the reaction volume was spotted onto pieces of DE81 paper, washed 5 times for 5 minutes each in a 5% sodium phosphate buffer, 2 times for 1 minute each in distilled water, 2 times for 1 minute each in 70% ethanol, and then dried. Opti-Fluor O was added to each sample and incorporated radioactivity was quantitated utilizing a Wallace 1450 Microbetaplus liquid scintillation counter.
Assay method. Seven day old Rojo chronically infected (and uninfected control) PBMCs are pre-treated with two fold dilutions of HLDA-1 for 48 hours. Treated cells are 2× washed with PBS and overlayed onto seven day old macrophages for 72 hours at which time the PBMCs were washed off and replaced with fresh uninfected pha blast PBMCs in the presence of IL-1 (5.0 ng/mL) and IL-2 (20U/mL). Overlayed cells are incubated for 48 hours 50% of cells transferred to a fresh 96 well plate, and then both the original and transfer plate infected with ROJO at a standard MOI. Samples for reverse transcriptase and toxicity testing were processed on day 7 post secondary infection.

**Q.** For Hyaluronidase, which “% Control” value (HIV-1; 5 mg/mL) is on record?
**A.** 111.3%

**Q.** And the “Mean RT” value (HIV-1; 5 mg/mL)?
**A.** 18777.7 cpm

**Q.** And the “% Control” value (HIV-1; 10 mg/mL)?
**A.** 122.2%

**Q.** And the “Mean RT” value (HIV-1; 10 mg/mL)?
**A.** 20614.7 cpm

**Q.** And the “% Control” value (HIV-1; 20 mg/mL)?
**A.** 162.7%

**Q.** And the “Mean RT” value (HIV-1; 20 mg/mL)?
**A.** 27462 cpm

**Q.** And the “% Control, Sum” value (HIV-1; Sum over 20, 10, 5 mg/mL)?
**A.** 396.2%

**Q.** And the “Mean RT, Sum” value (HIV-1; Sum over 20, 10, 5 mg/mL)?
**A.** 66854.4 cpm

**Q.** And the “RT activity % VC” value (ROJO (low passage HIV-1); Table 4, 2.5 units/mL, Rojo chronic PBMCs, Macrophage + PBMCs)?
**A.** 207.4%

**Q.** What about the “RT activity % VC” value (ROJO (low passage HIV-1); Table 4, 2.5 units/mL, Rojo chronic PBMCs, Transfer PBMCs) of the same substance?
**A.** 183.0%

**Q.** What about the “RT activity % VC” value (ROJO (low passage HIV-1); Table 4, 2.5 units/mL, control uninfected PBMCs, Macrophage + PBMCs) of the same substance?
**A.** 102.3%

**Q.** And the “RT activity % VC” value (ROJO (low passage HIV-1); Table 4, 2.5 units/mL, control uninfected PBMCs, Transfer PBMCs)?
**A.** 47.3%

**Q.** And the “RT activity % VC” value (ROJO (low passage HIV-1); Table 4, 3.75 units/mL, Rojo chronic PBMCs, Macrophage + PBMCs)?
**A.** 124.1%

**Q.** And the “RT activity % VC” value (ROJO (low passage HIV-1); Table 4, 3.75 units/mL, Rojo chronic PBMCs, Transfer PBMCs)?
**A.** 126.5%

**Q.** What about the “RT activity % VC” value (ROJO (low passage HIV-1); Table 4, 3.75 units/mL, control uninfected PBMCs, Macrophage + PBMCs) of the same substance?
**A.** 111.5%

**Q.** And the “RT activity % VC” value (ROJO (low passage HIV-1); Table 4, 3.75 units/mL, control uninfected PBMCs, Transfer PBMCs)?
**A.** 34.4%

**Q.** What about the “RT activity % VC” value (ROJO (low passage HIV-1); Table 4, 5 units/mL, Rojo chronic PBMCs, Macrophage + PBMCs) of the same substance?
**A.** 22.2%

**Q.** And the “RT activity % VC” value (ROJO (low passage HIV-1); Table 4, 5 units/mL, Rojo chronic PBMCs, Transfer PBMCs)?
**A.** 24.2%

**Q.** What about the “RT activity % VC” value (ROJO (low passage HIV-1); Table 4, 5 units/mL, control uninfected PBMCs, Macrophage + PBMCs) of the same substance?
**A.** 71.1%

**Q.** What about the “RT activity % VC” value (ROJO (low passage HIV-1); Table 4, 5 units/mL, control uninfected PBMCs, Transfer PBMCs) of the same substance?
**A.** 18.0%

**Q.** And the “RT activity % VC” value (ROJO (low passage HIV-1); Table 4, 7.5 units/mL, Rojo chronic PBMCs, Macrophage + PBMCs)?
**A.** 12.7%

**Q.** What about the “RT activity % VC” value (ROJO (low passage HIV-1); Table 4, 7.5 units/mL, Rojo chronic PBMCs, Transfer PBMCs) of the same substance?
**A.** 21.9%

**Q.** What about the “RT activity % VC” value (ROJO (low passage HIV-1); Table 4, 7.5 units/mL, control uninfected PBMCs, Macrophage + PBMCs) of the same substance?
**A.** 56.4%

**Q.** What about the “RT activity % VC” value (ROJO (low passage HIV-1); Table 4, 7.5 units/mL, control uninfected PBMCs, Transfer PBMCs) of the same substance?
**A.** 26.8%

**Q.** What about the “RT activity % VC” value (ROJO (low passage HIV-1); Table 4, 10 units/mL, Rojo chronic PBMCs, Macrophage + PBMCs) of the same substance?
**A.** 14.8%

**Q.** And the “RT activity % VC” value (ROJO (low passage HIV-1); Table 4, 10 units/mL, Rojo chronic PBMCs, Transfer PBMCs)?
**A.** 21.5%

**Q.** What about the “RT activity % VC” value (ROJO (low passage HIV-1); Table 4, 10 units/mL, control uninfected PBMCs, Macrophage + PBMCs) of the same substance?
**A.** 56.2%

**Q.** What about the “RT activity % VC” value (ROJO (low passage HIV-1); Table 4, 10 units/mL, control uninfected PBMCs, Transfer PBMCs) of the same substance?
**A.** 21.2%

**Q.** What about the “RT activity % VC” value (ROJO (low passage HIV-1); Table 4, 15 units/mL, Rojo chronic PBMCs, Macrophage + PBMCs) of the same substance?
**A.** 13.3%

**Q.** What about the “RT activity % VC” value (ROJO (low passage HIV-1); Table 4, 15 units/mL, Rojo chronic PBMCs, Transfer PBMCs) of the same substance?
**A.** 21.9%

**Q.** And the “RT activity % VC” value (ROJO (low passage HIV-1); Table 4, 15 units/mL, control uninfected PBMCs, Macrophage + PBMCs)?
**A.** 40.2%

**Q.** And the “RT activity % VC” value (ROJO (low passage HIV-1); Table 4, 15 units/mL, control uninfected PBMCs, Transfer PBMCs)?
**A.** 20.6%

**Q.** What about the “RT activity % VC” value (ROJO (low passage HIV-1); Table 4, 20 units/mL, Rojo chronic PBMCs, Macrophage + PBMCs) of the same substance?
**A.** 14.2%

**Q.** And the “RT activity % VC” value (ROJO (low passage HIV-1); Table 4, 20 units/mL, Rojo chronic PBMCs, Transfer PBMCs)?
**A.** 13.6%

**Q.** What about the “RT activity % VC” value (ROJO (low passage HIV-1); Table 4, 20 units/mL, control uninfected PBMCs, Macrophage + PBMCs) of the same substance?
**A.** 41.9%

**Q.** What about the “RT activity % VC” value (ROJO (low passage HIV-1); Table 4, 20 units/mL, control uninfected PBMCs, Transfer PBMCs) of the same substance?
**A.** 33.0%

**Q.** And the “RT activity % VC” value (ROJO (low passage HIV-1); Table 4, 30 units/mL, Rojo chronic PBMCs, Macrophage + PBMCs)?
**A.** 19.9%

**Q.** What about the “RT activity % VC” value (ROJO (low passage HIV-1); Table 4, 30 units/mL, Rojo chronic PBMCs, Transfer PBMCs) of the same substance?
**A.** 18.0%

**Q.** And the “RT activity % VC” value (ROJO (low passage HIV-1); Table 4, 30 units/mL, control uninfected PBMCs, Macrophage + PBMCs)?
**A.** 43.8%

**Q.** What about the “RT activity % VC” value (ROJO (low passage HIV-1); Table 4, 30 units/mL, control uninfected PBMCs, Transfer PBMCs) of the same substance?
**A.** 24.0%

**Q.** And the “RT activity % VC” value (ROJO (low passage HIV-1); Table 5, 2.5 units/mL, Rojo chronic PBMCs, Macrophage + PBMCs)?
**A.** 164.0%

**Q.** And the “RT activity % VC” value (ROJO (low passage HIV-1); Table 5, 2.5 units/mL, Rojo chronic PBMCs, Transfer PBMCs)?
**A.** 106.0%

**Q.** What about the “RT activity % VC” value (ROJO (low passage HIV-1); Table 5, 2.5 units/mL, control uninfected PBMCs, Transfer PBMCs) of the same substance?
**A.** 136.0%

**Q.** What about the “RT activity % VC” value (ROJO (low passage HIV-1); Table 5, 3.75 units/mL, Rojo chronic PBMCs, Macrophage + PBMCs) of the same substance?
**A.** 191.7%

**Q.** And the “RT activity % VC” value (ROJO (low passage HIV-1); Table 5, 3.75 units/mL, Rojo chronic PBMCs, Transfer PBMCs)?
**A.** 152.4%

**Q.** What about the “RT activity % VC” value (ROJO (low passage HIV-1); Table 5, 3.75 units/mL, control uninfected PBMCs, Macrophage + PBMCs) of the same substance?
**A.** 108.5%

**Q.** What about the “RT activity % VC” value (ROJO (low passage HIV-1); Table 5, 3.75 units/mL, control uninfected PBMCs, Transfer PBMCs) of the same substance?
**A.** 195.0%

**Q.** What about the “RT activity % VC” value (ROJO (low passage HIV-1); Table 5, 5 units/mL, Rojo chronic PBMCs, Macrophage + PBMCs) of the same substance?
**A.** 253.5%

**Q.** What about the “RT activity % VC” value (ROJO (low passage HIV-1); Table 5, 5 units/mL, control uninfected PBMCs, Macrophage + PBMCs) of the same substance?
**A.** 184.7%

**Q.** What about the “RT activity % VC” value (ROJO (low passage HIV-1); Table 5, 5 units/mL, control uninfected PBMCs, Transfer PBMCs) of the same substance?
**A.** 380.0%

**Q.** And the “RT activity % VC” value (ROJO (low passage HIV-1); Table 5, 7.5 units/mL, Rojo chronic PBMCs, Macrophage + PBMCs)?
**A.** 476.0%

**Q.** What about the “RT activity % VC” value (ROJO (low passage HIV-1); Table 5, 7.5 units/mL, Rojo chronic PBMCs, Transfer PBMCs) of the same substance?
**A.** 792.6%

**Q.** And the “RT activity % VC” value (ROJO (low passage HIV-1); Table 5, 10 units/mL, Rojo chronic PBMCs, Transfer PBMCs)?
**A.** 730.4%

**Q.** And the “RT activity % VC” value (ROJO (low passage HIV-1); Table 5, 10 units/mL, control uninfected PBMCs, Macrophage + PBMCs)?
**A.** 965.0%

**Q.** What about the “RT activity % VC” value (ROJO (low passage HIV-1); Table 5, 20 units/mL, Rojo chronic PBMCs, Macrophage + PBMCs) of the same substance?
**A.** 375.9%

**Q.** What about the “RT activity % VC” value (ROJO (low passage HIV-1); Table 5, 20 units/mL, Rojo chronic PBMCs, Transfer PBMCs) of the same substance?
**A.** 284.2%

**Q.** And the “RT activity % VC” value (ROJO (low passage HIV-1); Table 5, 20 units/mL, control uninfected PBMCs, Macrophage + PBMCs)?
**A.** 196.8%

**Q.** And the “RT activity % VC” value (ROJO (low passage HIV-1); Table 5, 20 units/mL, control uninfected PBMCs, Transfer PBMCs)?
**A.** 383.0%

**Q.** What about the “RT activity % VC” value (ROJO (low passage HIV-1); Table 5, 30 units/mL, Rojo chronic PBMCs, Macrophage + PBMCs) of the same substance?
**A.** 291.8%

**Q.** And the “RT activity % VC” value (ROJO (low passage HIV-1); Table 5, 30 units/mL, Rojo chronic PBMCs, Transfer PBMCs)?
**A.** 222.3%

**Q.** And the “RT activity % VC” value (ROJO (low passage HIV-1); Table 5, 30 units/mL, control uninfected PBMCs, Macrophage + PBMCs)?
**A.** 163.1%

**Q.** And the “RT activity % VC” value (ROJO (low passage HIV-1); Table 5, 30 units/mL, control uninfected PBMCs, Transfer PBMCs)?
**A.** 142.7%
